#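 1) Cells in 96-well plates. 2) Compound, 48 h, 5 concentrations. 3) Linear interpolation between surrounding doses. 4) Unreached endpoint = highest concentration. GI50 = concentration required for 50% inhibition of growth.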 Calls of active or inactive are those of the source. Cut-off read from the data, not from the text of the source: active = GI50 up to about 1.1 µM and inactive = higher.
# Columns and labels:
# Test in all cases: NCI tumour cell line growth inhibition, 48 h
# 786-0 = system: 786-0
# LOX IMVI = system: LOX IMVI
# HCT-116 = system: HCT-116
# OVCAR-8 = system: OVCAR-8
# M14 = system: M14
# M19-MEL = system: M19-MEL
# SNB-19 = system: SNB-19
# UO-31 = system: UO-31
# NCI-H23 = system: NCI-H23
# KM12 = system: KM12
# EKVX = system: EKVX
# OVCAR-4 = system: OVCAR-4
# HL-60 = system: HL-60
# NCI-H522 = system: NCI-H522
# COLO 205 = system: COLO 205
# U-251 = system: U-251
# MCF7 = system: MCF7
# Hs-578T = system: Hs-578T
# NCI/ADR-RES = system: NCI/ADR-RES
# BT-549 = system: BT-549
Structure (SMILES),GI50 (786-0),GI50 (LOX IMVI),GI50 (HCT-116),GI50 (OVCAR-8),GI50 (M14),GI50 (M19-MEL),GI50 (SNB-19),GI50 (UO-31),GI50 (NCI-H23),GI50 (KM12),GI50 (EKVX),GI50 (OVCAR-4),GI50 (HL-60),GI50 (NCI-H522),GI50 (COLO 205),GI50 (U-251),GI50 (MCF7),GI50 (Hs-578T),GI50 (NCI/ADR-RES),GI50 (BT-549)
CC/C(C)=C1\CCC(CN2CCOCC2)C1=O (stereo not drawn),10.1 µM (inactive),16.4 µM (inactive),13.9 µM (inactive),20.7 µM (inactive),17.3 µM (inactive),14.9 µM (inactive),47.9 µM (inactive),21.6 µM (inactive),13.8 µM (inactive),24.3 µM (inactive),18.7 µM (inactive),17.6 µM (inactive),15.1 µM (inactive),–,–,–,–,–,–,–
Cc1ccc(C)c(N2C/C(=N\NC(=O)CC#N)C(c3nc4ccccc4s3)C(=O)C2=O)c1 (stereo not drawn),> 100 µM (inactive),–,> 100 µM (inactive),> 100 µM (inactive),> 100 µM (inactive),> 100 µM (inactive),> 100 µM (inactive),> 100 µM (inactive),> 100 µM (inactive),> 100 µM (inactive),> 100 µM (inactive),> 100 µM (inactive),> 100 µM (inactive),> 100 µM (inactive),> 100 µM (inactive),> 100 µM (inactive),–,–,–,–
ON1CCc2c([nH]c3ccccc23)C1c1ccc(Cl)cc1 (stereo not drawn),32.1 µM (inactive),18.8 µM (inactive),0.384 µM (active),32.4 µM (inactive),42.7 µM (inactive),36.8 µM (inactive),29 µM (inactive),25.8 µM (inactive),21.9 µM (inactive),27.5 µM (inactive),35.8 µM (inactive),–,25.9 µM (inactive),28.1 µM (inactive),32.9 µM (inactive),15.2 µM (inactive),–,–,–,–
COc1ccc(N2C(=O)C(N3C(=O)C=CC3=O)C2C=O)cc1 (stereo not drawn),> 100 µM (inactive),> 100 µM (inactive),> 100 µM (inactive),> 100 µM (inactive),> 100 µM (inactive),> 100 µM (inactive),> 100 µM (inactive),> 100 µM (inactive),> 100 µM (inactive),> 100 µM (inactive),> 100 µM (inactive),–,> 100 µM (inactive),> 100 µM (inactive),> 100 µM (inactive),> 100 µM (inactive),–,–,–,–
Cn1c2cccc3nnc4cccc(c4c32)n1C,> 100 µM (inactive),> 100 µM (inactive),> 100 µM (inactive),> 100 µM (inactive),> 100 µM (inactive),> 100 µM (inactive),> 100 µM (inactive),> 100 µM (inactive),–,> 100 µM (inactive),> 100 µM (inactive),> 100 µM (inactive),> 100 µM (inactive),–,> 100 µM (inactive),> 100 µM (inactive),–,–,–,–
CCOC(=O)C(=O)/C(=C/N1C(=O)CC(=O)NC1=S)C(=O)OCC,> 100 µM (inactive),> 100 µM (inactive),> 100 µM (inactive),> 100 µM (inactive),> 100 µM (inactive),–,> 100 µM (inactive),26.8 µM (inactive),> 100 µM (inactive),> 100 µM (inactive),> 100 µM (inactive),> 100 µM (inactive),> 100 µM (inactive),> 100 µM (inactive),> 100 µM (inactive),> 100 µM (inactive),> 100 µM (inactive),18.7 µM (inactive),> 100 µM (inactive),> 100 µM (inactive)
COc1cc(-c2cc(=O)c3c(O)c(OC)c(OC)c(OC)c3o2)cc(OC)c1OC [GARDENIN],3.72 µM (inactive),6.31 µM (inactive),4.5 µM (inactive),4.57 µM (inactive),> 100 µM (inactive),–,10.7 µM (inactive),7.36 µM (inactive),15.1 µM (inactive),> 100 µM (inactive),22.3 µM (inactive),> 100 µM (inactive),> 60 µM (inactive),9.55 µM (inactive),> 100 µM (inactive),3.01 µM (inactive),> 100 µM (inactive),3.15 µM (inactive),7.29 µM (inactive),6.76 µM (inactive)
COc1nc(NC2OC(COC(C)=O)C(OC(C)=O)C(OC(C)=O)C2OC(C)=O)c2c(OC(C)=O)cc(=O)oc2n1 (stereo not drawn),> 100 µM (inactive),> 100 µM (inactive),> 100 µM (inactive),> 100 µM (inactive),> 100 µM (inactive),> 100 µM (inactive),> 100 µM (inactive),> 100 µM (inactive),> 100 µM (inactive),> 100 µM (inactive),> 100 µM (inactive),> 100 µM (inactive),> 100 µM (inactive),–,> 100 µM (inactive),> 100 µM (inactive),–,–,–,–
O=C(NC1C2CC3CC(C2)CC1C3)c1ccncn1 (stereo not drawn),> 100 µM (inactive),–,> 100 µM (inactive),> 100 µM (inactive),> 100 µM (inactive),> 100 µM (inactive),> 100 µM (inactive),> 100 µM (inactive),> 100 µM (inactive),> 100 µM (inactive),> 100 µM (inactive),> 100 µM (inactive),> 100 µM (inactive),> 100 µM (inactive),> 100 µM (inactive),> 100 µM (inactive),–,–,–,–
Cc1nc(N)c(N2CCN(S(=O)(=O)N(Cc3ccccc3)Cc3ccccc3)CC2)c(O)n1,28.9 µM (inactive),> 100 µM (inactive),28.1 µM (inactive),35.2 µM (inactive),28.5 µM (inactive),–,25 µM (inactive),> 100 µM (inactive),21.9 µM (inactive),56.9 µM (inactive),58.6 µM (inactive),22.2 µM (inactive),57.7 µM (inactive),> 10 µM (inactive),23.3 µM (inactive),16.9 µM (inactive),72.3 µM (inactive),33.3 µM (inactive),71.3 µM (inactive),48.9 µM (inactive)
C=C(Cl)[C@@](Cl)(CBr)CC[C@@H](Br)C(C)(C)Cl,0.0603 µM (active),13.2 µM (inactive),0.25 µM (active),0.466 µM (active),10.8 µM (inactive),–,0.499 µM (active),0.834 µM (active),8.02 µM (inactive),0.228 µM (active),2.97 µM (inactive),0.912 µM (active),0.3 µM (active),22.4 µM (inactive),0.5 µM (active),0.154 µM (active),0.249 µM (active),0.386 µM (active),0.522 µM (active),3.66 µM (inactive)
O=C1CNc2cc(N3CCN(c4cccc(C(F)(F)F)c4)CC3)ccc2N1,> 100 µM (inactive),38.4 µM (inactive),35.7 µM (inactive),83.2 µM (inactive),18 µM (inactive),–,> 100 µM (inactive),24.7 µM (inactive),39.9 µM (inactive),32.9 µM (inactive),91 µM (inactive),21.4 µM (inactive),19.9 µM (inactive),13.9 µM (inactive),27.5 µM (inactive),31 µM (inactive),43.1 µM (inactive),42.1 µM (inactive),34.6 µM (inactive),42.8 µM (inactive)
CNC1C(O)C(OC2C(N)CC(N)C(OC3OC(C(C)O)C(O)C(O)C3N)C2O)OCC1(C)O (stereo not drawn),> 100 µM (inactive),> 100 µM (inactive),> 100 µM (inactive),> 100 µM (inactive),> 100 µM (inactive),–,> 100 µM (inactive),> 100 µM (inactive),> 100 µM (inactive),> 100 µM (inactive),> 100 µM (inactive),> 100 µM (inactive),> 100 µM (inactive),> 100 µM (inactive),> 100 µM (inactive),> 100 µM (inactive),> 100 µM (inactive),> 100 µM (inactive),> 100 µM (inactive),> 100 µM (inactive)
NNc1nncn1N,> 80 µM (inactive),> 90.4 µM (inactive),> 100 µM (inactive),> 96.6 µM (inactive),> 100 µM (inactive),–,> 100 µM (inactive),84.1 µM (inactive),> 51.2 µM (inactive),> 100 µM (inactive),> 100 µM (inactive),38.1 µM (inactive),5.71 µM (inactive),> 93.1 µM (inactive),> 100 µM (inactive),> 100 µM (inactive),> 100 µM (inactive),> 100 µM (inactive),> 90.6 µM (inactive),> 100 µM (inactive)
COCN1C(=O)[C@@H]2CCCN2C(=O)c2ccc([N+](=O)[O-])cc21,> 100 µM (inactive),> 100 µM (inactive),> 100 µM (inactive),> 100 µM (inactive),> 100 µM (inactive),–,> 100 µM (inactive),> 100 µM (inactive),> 100 µM (inactive),> 100 µM (inactive),> 100 µM (inactive),> 100 µM (inactive),87.5 µM (inactive),> 100 µM (inactive),> 100 µM (inactive),> 100 µM (inactive),> 100 µM (inactive),> 100 µM (inactive),> 100 µM (inactive),> 100 µM (inactive)
CCOC(=O)N1c2c(c3ccccc3n2C(=O)OCC)C(=O)C(OC)N1C(=O)OCC (stereo not drawn),43.2 µM (inactive),18.1 µM (inactive),26.5 µM (inactive),21.7 µM (inactive),38.4 µM (inactive),–,41.4 µM (inactive),33.7 µM (inactive),44.3 µM (inactive),17.9 µM (inactive),22 µM (inactive),41.9 µM (inactive),17.2 µM (inactive),13.3 µM (inactive),15.5 µM (inactive),27.1 µM (inactive),34.3 µM (inactive),22.5 µM (inactive),22.9 µM (inactive),60.7 µM (inactive)

# Source: ChEMBL document CHEMBL1201862, “PubChem BioAssay data set” (2004)
